As a reminder, the clearance is the volume of plasma or blood freed of the substance per unit of time. As a reminder, the half-life is the time in which the quantity being followed falls by half. A lower half-life goes with rapid decline. By bioavailability is commonly meant dose-corrected exposure relative to a reference, in per cent. Read a low bioavailability as poor availability.

≈ marks a conversion by molar mass, not a printed value.

In one data set the test system is Haemophilus influenzae. The data set is described as follows: Antimicrobial activity against Haemophilus influenzae by broth dilution method. The class given is functional.
The next data set has as its system Staphylococcus aureus. The data set is described as follows: Antimicrobial activity against staphylococcus aureus by broth dilution method. Format: functional.
Another data set deals with Streptococcus pneumoniae. The experiment in a line: Antimicrobial activity against streptococcus pneumoniae by broth dilution method. The class given is functional. (Dilution methods test growth across graded concentrations, often in twofold steps.)
For data set [1], the target named is T1, Amine oxidase [flavin-containing] A (Homo sapiens, UniProt P21397).
T1 sequence (P21397 whole entry): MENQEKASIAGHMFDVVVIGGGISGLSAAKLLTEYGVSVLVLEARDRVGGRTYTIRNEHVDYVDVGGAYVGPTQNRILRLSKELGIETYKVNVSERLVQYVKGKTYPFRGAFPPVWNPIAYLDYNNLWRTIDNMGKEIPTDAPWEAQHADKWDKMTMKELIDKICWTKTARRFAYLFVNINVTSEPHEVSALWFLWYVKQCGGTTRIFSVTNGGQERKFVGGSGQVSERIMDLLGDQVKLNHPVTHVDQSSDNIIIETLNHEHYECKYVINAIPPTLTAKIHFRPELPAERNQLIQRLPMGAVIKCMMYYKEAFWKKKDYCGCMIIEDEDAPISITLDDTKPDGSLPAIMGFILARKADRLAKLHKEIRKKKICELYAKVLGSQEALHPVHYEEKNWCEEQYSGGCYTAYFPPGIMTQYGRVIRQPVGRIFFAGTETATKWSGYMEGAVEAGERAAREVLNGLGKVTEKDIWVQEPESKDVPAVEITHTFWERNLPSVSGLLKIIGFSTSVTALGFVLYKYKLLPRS
The experiment in a line: Inhibition human liver MAOA activity.

Another data set relates to Mus musculus. The experiment in a line: Antibacterial activity against Streptococcus pneumoniae ARC548 infected C57BL/6 mouse lung at 25 mg/kg, po after 2 days relative to Linezolid. Format: functional.
Data set [2] is described as follows: Plasma clearance in rat. The class given is ADME, organism-based.
Data set [3] in a line: Half life in rat. Format: ADME, organism-based. As to conditions: in vivo.
A short description of data set [4]: Volume of distribution in rat. As to conditions: in vivo, read-out: Vss. Format: ADME, organism-based.
Data set [5] can be described thus: Oral bioavailability in rat at 40 mg/kg. As to conditions: in vivo. Format: ADME, organism-based.

With `N#CCn1cc(-c2ccc(N3C[C@H](Cn4ccnn4)OC3=O)cc2F)nn1`, the figures for the MIC with Haemophilus influenzae, in the data set with Staphylococcus aureus and in the data set with Streptococcus pneumoniae were 32 µg/mL (≈ 86.9 µM), 4 µg/mL (≈ 10.9 µM) and 2 µg/mL (≈ 5.43 µM), respectively.

As for `CC(=O)NC[C@H]1CN(c2ccc(-c3cc(C)no3)c(F)c2)C(=O)O1`, the Ki in data set [1] turned out to be 0.95 µmol. Also, the MIC in the data set with Haemophilus influenzae stood at 4 µg/mL (≈ 12 µM); against Staphylococcus aureus, 0.5 µg/mL (≈ 1.5 µM); in the data set on Streptococcus pneumoniae it was 0.25 µg/mL (≈ 0.75 µM). For the same compound, in the data set with Mus musculus, the “Lung antibacterial activity relative to linezolid” value is reported as 22%.

Take `Cc1cn(C[C@H]2CN(c3ccc(-c4cc(C)no4)c(F)c3)C(=O)O2)nn1`: the Ki in data set [1] came to 22.6 µmol. The clearance in [2] stood at 5 mL/min/kg. The MIC with Haemophilus influenzae amounted to 4 µg/mL (≈ 11.2 µM); against Staphylococcus aureus, 0.5 µg/mL (≈ 1.4 µM); with Streptococcus pneumoniae, 0.25 µg/mL (≈ 0.7 µM). This compound also had a half-life in data set [3] of 1.2 h. Also, the Vd in data set [4] was determined as 0.5 L/kg. In addition, the bioavailability in [5] was 87%.

In data set [1], `Cc1cc(-c2ccc(N3C[C@H](Cn4ccnn4)OC3=O)cc2F)on1` displayed a Ki of 2.9 µmol. For the same compound, the clearance in data set [2] amounted to 5 mL/min/kg. Besides, the MIC amounted to 8 µg/mL (≈ 23.3 µM) in the data set on Haemophilus influenzae, 0.5 µg/mL (≈ 1.46 µM) against Staphylococcus aureus and 0.25 µg/mL (≈ 0.728 µM) in the data set on Streptococcus pneumoniae. Further, in the data set with Mus musculus, the “Lung antibacterial activity relative to linezolid” value turned out to be 92%. This compound had a half-life in data set [3] of 1.7 h. In addition, the Vd in data set [4] is 0.6 L/kg. The bioavailability in data set [5] stood at 82%.

In [1], `Cc1cc(-c2ccc(N3C[C@H](CNc4ccon4)OC3=O)cc2F)on1` returned a Ki of 0.42 µmol. Also, the MIC in the data set with Haemophilus influenzae was 16 µg/mL (≈ 44.7 µM); in the data set with Staphylococcus aureus, 0.5 µg/mL (≈ 1.4 µM); in the data set on Streptococcus pneumoniae, 0.25 µg/mL (≈ 0.698 µM). Moreover, the “Lung antibacterial activity relative to linezolid” value in the data set on Mus musculus stood at 33%.

As to `CC(=O)NC[C@H]1CN(c2ccc(N3CCOCC3)c(F)c2)C(=O)O1` [LINEZOLID], in [1], the Ki was 20 µmol. The same compound had an MIC with Haemophilus influenzae of 8 µg/mL (≈ 23.7 µM). Further, the “Lung antibacterial activity relative to linezolid” value in the data set with Mus musculus stood at 75%.

Consider `CC(=O)NC[C@H]1CN(c2ccc(-c3c[nH]nn3)c(F)c2)C(=O)O1`, for which the MIC is 8 µg/mL (≈ 25.1 µM) against Haemophilus influenzae, 4 µg/mL (≈ 12.5 µM) against Staphylococcus aureus and 2 µg/mL (≈ 6.26 µM) against Streptococcus pneumoniae.

For the compound `Cn1cc(-c2ccc(N3C[C@H](Cn4ccnn4)OC3=O)cc2F)nn1`, the figures for the MIC with Haemophilus influenzae, against Staphylococcus aureus and with Streptococcus pneumoniae were over 64 µg/mL, 32 µg/mL (≈ 93.2 µM) and 16 µg/mL (≈ 46.6 µM), respectively.

In the case of `O=C1O[C@@H](Cn2ccnn2)CN1c1ccc(-c2c[nH]nn2)c(F)c1`, the MIC against Haemophilus influenzae was over 64 µg/mL; against Staphylococcus aureus, 64 µg/mL (≈ 194 µM); in the data set with Streptococcus pneumoniae it was 32 µg/mL (≈ 97.2 µM).

As to `O=C1O[C@@H](CNc2ccon2)CN1c1ccc(-c2c[nH]nn2)c(F)c1`, the figures for the MIC against Haemophilus influenzae, in the data set on Staphylococcus aureus and in the data set on Streptococcus pneumoniae were 16 µg/mL (≈ 46.5 µM), 8 µg/mL (≈ 23.2 µM) and 16 µg/mL (≈ 46.5 µM), respectively.
